Where two headings read alike, the source gives them in different places.

Assay [1] relates to Glioma cell lines in vitro. The note with it: full text: Resistant glioma expresses IGFR-1 which is further up-regulated by AG1478; effect appears mediated through PI3-K/Akt; single cell line in vitro; cited from earlier work.
The test system of assay [2] is BT474 breast and MKN7 gastric cancer cells in vitro. The conditions noted are these: full text: Activation of erbB2/3 heterodimers by heregulin generated resistance; no in vivo data; cited from earlier work.
For assay [3], the system named is Patients with NSCLC. The conditions noted are these: full text: A secondary mutation in EGFR kinase causes resistance; cited from earlier work.
Assay [4] concerns Multiple cell lines in vitro. The note with it: full text: Sensitivity correlated with wt EGFR number; no in vivo data; cited from earlier work.
In assay [5] the test system is Multiple cell lines in vitro. The note with it: full text: Sustained signaling through Akt or Erk may cause resistance; no in vivo data; cited from earlier work.
Assay [6] relates to de2-7 EGFR phosphorylation in U87MG glioma cells. Briefly: Immunoblotting of de2-7 EGFR phosphorylation after Src-family kinase inhibitors. The class given is cell-based. The note with it: 10 μM, 30 minutes or 24 h, serum starved cells. The method, then:
FIG. 7A-7C. Interaction between de2-7 EGFR and Src. (A) Cells were serum starved overnight prior to treatment with 10 μM PP1 or PP2 or vehicle (DMSO) for 30 minutes or 24 h prior to immunoprecipitation with mAb528, mAb806 or an irrelevant isotype control. Immunoblotting was performed with an antibody specific for Y845 of the EGFR, while total de2-7 EGFR was visualized with the rabbit c-terminal polyclonal antibody. Results shown are representative of four independent experiments. […] Mice were treated with 1 mg mAb 806 three times per week for two weeks (days 18, 20, 22, 25, 27 and 29).
Cells were lysed in cold lysis buffer (30 mM HEPES, 150 mM NaCl, 10 mM NaF, 1% Triton X-100, 200 μM NaO3V, 0.4% H2O2 and the protease inhibitor cocktail set 1 (Calbiochem, San Diego, Calif.) containing 500 μM AEBSF, 150 nM Aprotinin, 1 μM E-64 protease inhibitor, 0.5 mM EDTA and 1 μM Leupeptin, pH 7.4). Lysates were immunoprecipitated with the mAb 806 or 528 and the resultant precipitates analyzed by immunoblotting as described by us in detail (21).
Activation of the wt EGFR leads to the transient activation of Src kinase. In a synergistic manner, activation of Src leads to phosphorylation tyrosine 845 (Y845) on the EGFR, which is not an auto-phosphorylation site rather a target for Src phosphorylation (24). Using an antibody specific to Y845 we examined the phosphorylation of Y845 in the de2-7 EGFR.

Assay [7] deals with Multiple cell lines in vitro and xenografts. The conditions noted are these: full text: More difficult to inhibit the phosphorylation of EGFR in the presence of ErbB2; cited from earlier work.
Assay [8] relates to A431 and MDA-468 breast cancer cells in vitro. The note with it: full text: Sustained signaling through Akt causes resistance. Presence of PTEN increases effectiveness of EGFR therapeutics; no in vivo data; cited from earlier work.
The subject of assay [9] is Multiple cell lines in vitro. The conditions noted are these: full text: Sensitivity correlated with wt EGFR number. Constitutive active MAPK increased resistance; no in vivo data; cited from earlier work.
Assay [10] concerns Patients with NSCLC. The conditions noted are these: full text: Patients with activating mutations in the EGFR kinase domain more likely to respond; not all patients with mutations respond; cited from earlier work.
The test system of assay [11] is Patients with colorectal cancer. The conditions noted are these: full text: Response correlated with increase in EGFR copy number; small sample numbers; cited from earlier work.
Assay [12] deals with Multiple cell lines in vitro and xenografts. The note with it: full text: Sensitivity correlated with wt EGFR number; cited from earlier work.

For `COc1cc2ncnc(Nc3cccc(Cl)c3)c2cc1OC` [AG1478], in assay [1], the Observation result is “Resistant glioma”.
With `Cc1[nH]c2ncnc(Nc3cccc(Cl)c3)c2c1C` [CGP59326], in [2], the Observation result is reported as “Activation of erbB2/3”.
Turning to `C#Cc1cccc(Nc2ncnc3cc(OCCOC)c(OCCOC)cc23)c1` [OSI-774], in assay [3], the Observation result is given as “A secondary mutation”.
For the molecule `COc1cc2ncnc(Nc3cccc(Br)c3)c2cc1OC` [PD153035], the Observation result in [4] is given as “Sensitivity correlated”; in assay [5] it was “Sustained signaling”.
On to `CC(C)(C)n1nc(-c2ccc(Cl)cc2)c2c(N)ncnc21` [PP2, (4-chlorophenyl)-7-(t-butyl)pyrazolo[3,4-d]-pyrimidine], for which, in assay [6], the “Phosphorylation at Y845 of de2-7 EGFR” value was “rapidly blocked” and the “autophosphorylation site at Y1173 of de2-7 EGFR” value is “relatively unaffected”.
In the case of `COc1cc2ncnc(Nc3ccc(F)c(Cl)c3)c2cc1OCCCN1CCOCC1` [ZD1839], the Observation entry in assay [7] is given as “More difficult to inhibit”; in assay [8], “Sustained signaling”; in [9], “Sensitivity correlated”; in assay [10], “Patients with activating”; in assay [3], “A secondary mutation”; in assay [5], “Sustained signaling”.
“ABX: monoclonal antibody directed to the EGFR”: the Observation result in assay [11] was “Response correlated”.

B1: EMD72000: EGFR inhibitor listed in Table 1 (antibody, chains of the INN, looked up, V domains shown)
VH: QVQLVQSGAEVKKPGASVKVSCKASGYTFTSHWMHWVRQAPGQGLEWIGEFNPSNGRTNYNEKFKSKATMTVDTSTNTAYMELSSLRSEDTAVYYCASRDYDYDGRYFDYWGQGTLVTVSS
VL: DIQMTQSPSSLSASVGDRVTITCSASSSVTYMYWYQQKPGKAPKLLIYDTSNLASGVPSRFSGSGSGTDYTFTISSLQPEDIATYYCQQWSSHIFTFGQGTKVEIK
As to B1, the Observation entry in assay [12] is recorded as “Sensitivity correlated”.

(Values after US9023356B2, “Treatment method using EGFR antibodies and SRC inhibitors and related formulations” (Ludwig Institute for Cancer Research Ltd, priority 2007, dated 2015).)
